Experimental data as given in patent publication US8551988B2, “Benzimidazole derivatives: preparation and pharmaceutical applications” (Mei Pharma, Inc., priority 2003, dated 2013).
Read-outs that look alike come from different tables or passages of the source.

What was measured:
[1] = biological target: HDAC1 enzyme (recombinant GST-HDAC1) (Homo sapiens (Human), UniProt Q13547); test: In vitro HDAC assay (BIOMOL fluorescent-based HDAC activity assay), HDAC1; format: biochemical
Protocol: (§1) The assay has been carried out in 96 well format and the BIOMOL fluorescent-based HDAC activity assay has been applied. […] Flur de lys Developer was added and the reaction was incubated for 10 min. Briefly, deacetylation of the substrate sensitizes it to the developer, which then generates a fluorophore (symbol). The fluorophore is excited with 360 nm light and the emitted light (460 nm) is detected on a fluorometric plate reader (Tecan Ultra Microplate detection system, Tecan Group Ltd.).
(§2) The analytical software, Prism 3.0 has been used to generate IC50 from a series of data.

[2] = biological target: HDAC8 enzyme (recombinant GST-HDAC8) (Homo sapiens (Human), UniProt Q9BY41); test: In vitro HDAC assay (BIOMOL fluorescent-based HDAC activity assay), HDAC8; format: biochemical
Sequence of HDAC8 enzyme (recombinant GST-HDAC8) (Q9BY41 whole entry): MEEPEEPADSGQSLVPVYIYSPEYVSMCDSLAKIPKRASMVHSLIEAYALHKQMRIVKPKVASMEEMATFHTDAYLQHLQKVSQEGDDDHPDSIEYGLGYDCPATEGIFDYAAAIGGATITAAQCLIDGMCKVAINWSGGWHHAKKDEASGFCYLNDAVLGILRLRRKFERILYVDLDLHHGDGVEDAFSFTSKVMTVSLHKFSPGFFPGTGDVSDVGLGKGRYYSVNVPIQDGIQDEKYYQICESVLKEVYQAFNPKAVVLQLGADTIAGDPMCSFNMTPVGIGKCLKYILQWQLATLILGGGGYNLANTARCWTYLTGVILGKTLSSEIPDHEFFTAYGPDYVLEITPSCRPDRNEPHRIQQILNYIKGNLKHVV
Protocol: as §1, §2

[3] = read-out: HDAC1 Enzyme Activity IC50
[4] = read-out: HDAC8 Enzyme Activity IC50
[5] = Free base, read-out: IC50 (HDAC1)
[6] = Free base, read-out: IC50 (HDAC8)

Sequence of HDAC1 enzyme (recombinant GST-HDAC1) (Q13547 whole entry): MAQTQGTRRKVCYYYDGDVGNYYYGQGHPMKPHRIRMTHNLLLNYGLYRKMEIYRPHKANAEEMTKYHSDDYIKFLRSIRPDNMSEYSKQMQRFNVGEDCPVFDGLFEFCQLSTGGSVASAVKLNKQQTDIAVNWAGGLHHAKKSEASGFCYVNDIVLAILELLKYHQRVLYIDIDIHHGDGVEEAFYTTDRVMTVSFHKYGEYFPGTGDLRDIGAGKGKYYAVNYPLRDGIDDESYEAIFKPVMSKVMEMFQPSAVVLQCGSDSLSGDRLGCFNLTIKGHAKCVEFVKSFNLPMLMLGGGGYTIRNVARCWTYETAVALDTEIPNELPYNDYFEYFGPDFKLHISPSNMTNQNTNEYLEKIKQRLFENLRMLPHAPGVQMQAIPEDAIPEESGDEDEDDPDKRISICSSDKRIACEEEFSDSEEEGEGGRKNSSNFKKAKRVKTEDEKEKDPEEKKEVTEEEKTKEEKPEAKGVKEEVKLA

Row | Compound | IC50 [1, 3] | IC50 [2, 4] | further results
1 | CC(Cc1nc2cc(/C=C/C(=O)NO)ccc2n1CCCO)c1ccccc1 (centres unmarked) [Compound 1, N-Hydroxy-3-[1-(3-hydroxy-propyl)-2-(2-phenyl-propyl)-1H-benzimidazol-5-yl]-acrylamide] | 51 nM | 119 nM | –
2 | COc1cc(Cn2c(CCc3ccccc3)nc3cc(/C=C/C(=O)NO)ccc32)cc(OC)c1OC [Compound 2, N-Hydroxy-3-[1-(3,4,5-trimethoxybenzyl)-2-(2-phenyl-ethyl)-1H-benzimidazol-5-yl]-acrylamide] | 26 nM | 355 nM | IC50 [1, 5]: 43 nM; IC50 ([1]; Salt of CF3COOH, read-out: IC50 (HDAC1)): 49 nM; IC50 [2, 6]: 267 nM
3 | COc1cc(-c2nc3cc(/C=C/C(=O)NO)ccc3n2CCCO)ccc1OCc1ccccc1 [Compound 4, N-Hydroxy-3-[2-(4-benzyloxy-3-methoxy-phenyl)-1-(3-hydroxy-propyl)-1H-benzimidazole-5-yl]-acrylamide] | 1340 nM | 790 nM | –
4 | COc1ccc(-c2nc3cc(/C=C/C(=O)NO)ccc3n2CCO)cc1 [Compound 5, N-Hydroxy-3-[1-(2-hydroxy-ethyl)-2-(4-methoxy-phenyl)-1H-benzimidazole-5-yl]-acrylamide] | 4320 nM | 401 nM | –
5 | COc1cc(-c2nc3cc(/C=C/C(=O)NO)ccc3n2CC(O)CO)ccc1OCc1ccccc1 (centres unmarked) [Compound 7, N-Hydroxy-3-[2-(4-benzyloxy-3-methoxy-phenyl)-1-(2,3-hydroxy-propyl)-1H-benzimidazole-5-yl]-acrylamide] | 1520 nM | 336 nM | –
6 | O=C(/C=C/c1ccc2c(c1)nc(CCc1ccccc1)n2CC(O)CO)NO (centres unmarked) [Compound 8] | – | 454 nM | –
7 | O=C(/C=C/c1ccc2c(c1)nc(-c1ccccn1)n2CC(O)CO)NO (centres unmarked) [Compound 9, N-Hydroxy-3-[1-(2,3-hydroxy-propyl)-2-(2-pyridyl)-1H-benzimidazol-5-yl]-acrylamide] | 1340 nM | 344 nM | –
8 | O=C(/C=C/c1ccc2c(c1)nc(-c1ccncc1)n2CCO)NO [Compound 10, N-Hydroxy-3-[1-(2-hydroxy-ethyl)-2-(4-pyridyl)-1H-benzimidazol-5-yl]-acrylamide] | 2660 nM | 883 nM | –
9 | O=C(/C=C/c1ccc2c(c1)nc(-c1ccncc1)n2CCCO)NO [Compound 11, N-Hydroxy-3-[1-(3-hydroxy-propyl)-2-(4-pyridyl)-1H-benzimidazol-5-yl]-acrylamide] | 846 nM | 161 nM | –
10 | O=C(/C=C/c1ccc2c(c1)nc(CCc1ccccc1)n2Cc1cccnc1)NO [Compound 12, N-Hydroxy-3-[1-(3-pyridylmethyl)-2-(2-phenyl-ethyl)-1H-benzimidazol-5-yl]-acrylamide] | 131 nM | 202 nM | –
11 | O=C(/C=C/c1ccc2c(c1)nc(-c1ccccn1)n2CCCO)NO [Compound 13, N-Hydroxy-3-[1-(3-hydroxy-propyl)-2-(2-pyridyl)-1H-benzimidazol-5-yl]-acrylamide] | – | 141 nM | –
12 | O=C(/C=C/c1ccc2c(c1)nc(CCc1ccccc1)n2Cc1ccccn1)NO [Compound 16, N-Hydroxy-3-(2-phenethyl-1-(pyridin-2-yl)methyl-1H-benzimidazol-5-yl)-acrylamide] | 194 nM | 366 nM | –
13 | CN(C)CC(C)(C)Cn1c(CCc2ccccc2)nc2cc(/C=C/C(=O)NO)ccc21 [Compound 17, N-Hydroxy-3-[1-(3-Dimethylamino-2,2-dimethyl-propyl)-2-phenethyl-1H-benzimidazol-5-yl]-acrylamide] | – | – | IC50 [1, 5]: 29 nM; IC50 ([1]; Salt of HCl, read-out: IC50 (HDAC1)): 44 nM; IC50 ([1]; Salt of Methane sulfonic acid, read-out: IC50 (HDAC1)): 51 nM; IC50 [2, 6]: 353 nM
14 | O=C(/C=C/c1ccc2c(c1)nc(COCc1ccccc1)n2CCCO)NO [Compound 19] | 165 nM | 145 nM | –
15 | CCCn1c(CCc2ccccc2)nc2cc(/C=C/C(=O)NO)ccc21 [Compound 36, N-Hydroxy-3-(2-phenethyl-1-propyl-1H-benzimidazol-5-yl}-acrylamide] | 227 nM | – | –
16 | O=C(/C=C/c1ccc2[nH]c(CCc3ccccc3)nc2c1)NO [Compound 50, N-Hydroxy-3-(2-phenethyl-1H-benzimidazol-5-yl)-acrylamide] | 173 nM | – | –
17 | CCn1c(CNCc2ccccc2)nc2cc(/C=C/C(=O)NO)ccc21 [Compound 64, N-Hydroxy-3-[2-(benzylamino-methyl)-ethyl-1H-benzimidazol-5-yl]-acrylamide] | 230 nM | – | –
18 | CN(C)CC(C)(C)Cn1c(SCc2ccccc2)nc2cc(/C=C/C(=O)NO)ccc21 [Compound 89, N-Hydroxy-3-[2-benzylsulfanyl-1-(3-dimethylamino-2-2,dimethyl-propyl)-1H-benzimidazol-5-yl]-acrylamide] | 116 nM | – | –
19 | CN(C)CC(C)(C)Cn1c([S+]([O-])Cc2ccccc2)nc2cc(/C=C/C(=O)NO)ccc21 (centres unmarked) [Compound 91] | 30 nM | – | –
20 | COc1cccc(CCc2nc3cc(/C=C/C(=O)NO)ccc3n2CC(C)(C)CN(C)C)c1 [Compound 94, N-Hydroxy-3-(1-(3-dimethylamino-2,2-dimethyl-propyl)-2-[2-(3-methoxy-phenyl)-ethyl]-1H-benzimidazol-5-yl)-acrylamide] | 52 nM | – | –

Further lines, with some results ahead:

Row | IC50 [1, 3] | IC50 [2, 4] | Compound | further results
21 | 171 nM | 251 nM | O=C(/C=C/c1ccc2c(c1)nc(CCc1ccccc1)n2CCCO)NO [Compound 14, N-Hydroxy-3-[1-(3-hydroxy-propyl)-2-phenethyl-1H-benzimidazol-5-yl]-acrylamide] | –
22 | – | 313 nM | COCCCn1c(CCc2ccccc2)nc2cc(/C=C/C(=O)NO)ccc21 [Compound 15] | –
23 | – | 290 nM | O=C(/C=C/c1ccc2c(c1)nc(CCc1ccccc1)n2CCc1ccccn1)NO [Compound 18] | –
24 | – | 234 nM | CC(C)Cc1nc2cc(/C=C/C(=O)NO)ccc2n1CCc1ccccn1 [Compound 22] | –
25 | 876 nM | – | O=C(/C=C/c1ccc2c(c1)nc(CCc1ccccc1)n2CCc1ccccc1)NO [Compound 26, N-Hydroxy-3-(1,2-Diphenethyl-1H-benzimidazol-5-yl]-acrylamide] | –
26 | – | 300 nM | O=C(/C=C/c1ccc2c(c1)nc(COCc1ccccc1)n2CCc1cccnc1)NO [Compound 28] | –
27 | – | 34000 nM | CC(C)Cc1nc2cc(CCC(=O)NO)ccc2n1CCCO [Compound 29, N-Hydroxy-3-[1-(3-Hydroxy-propyl)-2-isobutyl-1H-benzimidazol-5-yl]-propionamide] | –
28 | 897 nM | – | CCCn1cnc2cc(/C=C/C(=O)NO)ccc21 [Compound 37, N-Hydroxy-3-(1-propyl-1H-benzimidazol-5-yl}-acrylamide] | –
29 | 1220 nM | – | CCn1cnc2cc(/C=C/C(=O)NO)ccc21 [Compound 39, N-Hydroxy-3-(1-Ethyl-1H-benzimidazol-5-yl)-acrylamide] | –
30 | – | 441 nM | O=C(NO)c1ccc2c(c1)nc(CCc1ccccc1)n2CCCO [Compound 40, 1-(3-Hydroxy-propyl)-2-phenethyl-1H-benzimidazol-5-carboxylic acid hydroxyamide] | –
31 | – | 159 nM | CC(Cc1nc2cc(/C=C/C(=O)NO)ccc2n1CCc1cccnc1)c1ccccc1 (centres unmarked) [Compound 41] | –
32 | 1400 nM | – | Cn1cnc2cc(/C=C/C(=O)NO)ccc21 [Compound 49, N-Hydroxy-3-(1-methyl-1H-benzimidazol-5-yl)-acrylamide] | –
33 | 896 nM | – | O=C(/C=C/c1ccc2[nH]cnc2c1)NO [Compound 51, N-Hydroxy-3-(1H-benzimidazol-5-yl)-acrylamide] | –
34 | 160 nM | – | Cn1c(CCCc2ccccc2)nc2cc(/C=C/C(=O)NO)ccc21 [Compound 52, N-Hydroxy-3-[1-methyl-2-(3-phenyl-propyl)-1H-benzimidazol-5-yl]-acrylamide] | –
35 | 100 nM | – | Cn1c(CNC(=O)Cc2ccccc2)nc2cc(/C=C/C(=O)NO)ccc21 [Compound 54] | –
36 | 153 nM | – | CN(C)CCCCn1c(CCc2ccccc2)nc2cc(/C=C/C(=O)NO)ccc21 [Compound 57, N-Hydroxy-3-[1-(4-dimethylamino-butyl)-2-phenethyl-1H-benzimidazol-5-yl]-acrylamide] | –
37 | 116 nM | – | Cn1c(CNCc2ccccc2)nc2cc(/C=C/C(=O)NO)ccc21 [Compound 60, N-Hydroxy-3-[2-(benzylamino-methyl)-1-methyl-1H-benzimidazol-5-yl]-acrylamide] | –
38 | 162 nM | – | CN(C)CCCn1c(CCc2ccccc2)nc2cc(/C=C/C(=O)NO)ccc21 [Compound 63, N-Hydroxy-3-[1-(3-dimethylamino-propyl)-2-phenethyl-1H-benzimidazol-5-yl]-acrylamide] | –
39 | 371 nM | – | CCn1c(CCNCc2ccccc2)nc2cc(/C=C/C(=O)NO)ccc21 [Compound 74, N-Hydroxy-3-[2-(2-benzylamino-ethyl)-1-ethyl-1H-benzimidazol-5-yl]-acrylamide] | –
40 | 304 nM | – | O=C(/C=C/c1ccc2c(c1)nc(CCc1ccccc1)n2CCCN1CCCC1)NO [Compound 82, N-Hydroxy-3-[2-phenethyl-1-(3-pyrrolidin-1-yl-propyl)-1H-benzimidazol-5-yl]-acrylamide] | –
41 | 400 nM | – | CN(C)CC(C)(C)Cn1c(CCc2cccnc2)nc2cc(/C=C/C(=O)NO)ccc21 [Compound 86, N-Hydroxy-3-[1-(3-Dimethylamino-2,2-dimethyl-propyl)-2-(2-pyridin-3-yl-ethyl)-1H-benzimidazol-5-yl]-acrylamide] | –
42 | 168 nM | – | CCn1c(Cc2ccccc2)nc2cc(/C=C/C(=O)NO)ccc21 [Compound 92, N-Hydroxy-3-(2-benzyl-1-ethyl-1H-benzimidazol-5-yl)-acrylamide] | –
43 | 65 nM | – | CCn1c(CCCc2c[nH]c3ccccc23)nc2cc(/C=C/C(=O)NO)ccc21 [Compound 93, N-Hydroxy-3-(1-ethyl-2-[3-(1H-indol-3-yl)-propyl]-1H-benzimidazol-5-yl)-acrylamide] | –
44 | 125 nM | – | CCn1c(CCCOc2ccccc2)nc2cc(/C=C/C(=O)NO)ccc21 [Compound 96, N-Hydroxy-3-[1-ethyl-2-(3-phenoxy-propyl)-1H-benzimidazol-5-yl]-acrylamide] | –
